The record followed here is patent publication US11401278B2, “Macrocyclic indole derivatives” (The Broad Institute, Inc., priority 2017, dated 2022).

Data set [1] deals with SUDHL5. As to the kind of experiment: Induction of caspase-3/7 activity (Assay 4), SUDHL5. In kind it is cell-based. The following applies: caspase-3/7 induction, median. The procedure, abridged:
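Caspase-3/7 activity measured by Caspase-Glo 3/7 luminescence in DLBCL cells after 3 h compound treatment at 37 °C. Medium-only background subtracted. EC50 fitted with C0 fixed at 1 and top set to the reference compound's plateau/max induction.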

Data set [2] concerns SUDHL5. Description: Antiproliferation assay (Assay 7), SUDHL5. In kind it is cell-based. The following applies: CellTiter-Glo, median, read-out: Antiproli SUDHL5 [M] (median) IC50. The method, boiled down: (§1)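 Cells were exposed to compound for 72 hours at 37° C. Viability was measured by CellTiter-Glo luminescence. A day 0 plate read at the start served as the time-zero reference.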

The subject of data set [3] is HMC-1-8. Description: Antiproliferation assay (Assay 7), HMC-1-8. The following applies: CellTiter-Glo, several values per example, read-out: Antiproli HMC-1-8 [M] IC50. In kind it is cell-based. The procedure, abridged: as §1
(In general: In ATP-based viability assays light output follows the ATP content of the culture.)

Data set [4] relates to SUDHL5. As to the kind of experiment: Induction of cytotoxicity (Assay 6), SUDHL5. The following applies: read-out: Cytotox SUDHL5 [M] (median) IC50, CellTiter-Glo, 5 hours, SUDHL5.
Description: Assay 6 Induction of Cytotoxicity Upon Treatment of Cells with Selected Compounds
Therefore, cytotoxicity assays were run in parallel in SUDHL5 and SUDHL10 cells.
The different cell lines were plated in culture medium (RPMI 1640 [GIBCO #22400-089] supplemented with 10% Fetal Bovine Serum) at a density of 3,300 cells in 30 μl/well in a sterile, solid black, flat bottom, polystyrene, TC-treated 384-well microplate (Corning #3571) using Multidrop Combi Reagent Dispenser. As a control, medium without cells was also added to the plate. Cells were incubated in a humidified incubator at 37° C. overnight. On the next day, the cells were treated with compounds (stock solution, 10 mM in DMSO) using the HP D300 Digital Dispenser in a concentration range of 3.3×10e-5 M (33 μM) to 5×10e-9 M (5 nM) in a single-dot curve with at least 16 dilutions and a DMSO concentration of 0.33%. Rim wells were excluded. The cells were incubated for 5 hours in a humidified incubator at 37° C. After this incubation, 30 μl of CellTiter-Glo® Luminescent Cell Viability reagent (Promega, G7573) was added to each well using the Multidrop Combi Reagent Dispenser, followed by 15 minutes incubation on a shaker at room temperature. Finally, luminescence was read at 0.1 ms, with a gain of 3000 using the PHERAstar FS microplate reader (BMG Labtech).
Data set [5] addresses BCL-2 (Homo sapiens (Human), UniProt P10415). Description: Protein-protein interaction assay BCL-2/Bad BH3 peptide (BCL-2 assay, TR-FRET). It is filed as binding. The conditions noted are these: His-BCL-2 / Bad BH3 peptide, median. The procedure, abridged:
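His-BCL-2 (1-211, E. coli) at 1 nM preincubated 10 min at 22 °C with compound (11 concentrations, 0.1 nM-20 μM, duplicates), then 1 nM biotinylated Bad BH3 peptide added. After 1 h at 22 °C plus overnight at 4 °C, TR-FRET 665/620 ratio normalised to DMSO and no-BCL-2 controls, IC50 from 4-parameter fit.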

Data set [6] relates to MV-4-11. Description: Antiproliferation assay (Assay 7), MV-4-11. It is filed as cell-based. The following applies: CellTiter-Glo, several values per example. The procedure, abridged:
as §1

The mark [7] stands for this setting: Homo sapiens, MV4-11, 72 h, read-out: Antiproli MV-4-11 [M] IC50.

“And” between values parts separate entries of the source, which are not always exact repeats. Equal entries are not always repeated. Structures can show the parent of a compound that is named as a salt. Where two headings read alike, the source gives them in different places.

For orientation: EC50 means the midpoint of the concentration-response curve. A lower EC50 goes with greater potency. One may read the IC50 as the point on the concentration scale where inhibition reaches its midpoint.

BCL-2, sequence (P10415 other isoform, or with tags, fused parts or gaps): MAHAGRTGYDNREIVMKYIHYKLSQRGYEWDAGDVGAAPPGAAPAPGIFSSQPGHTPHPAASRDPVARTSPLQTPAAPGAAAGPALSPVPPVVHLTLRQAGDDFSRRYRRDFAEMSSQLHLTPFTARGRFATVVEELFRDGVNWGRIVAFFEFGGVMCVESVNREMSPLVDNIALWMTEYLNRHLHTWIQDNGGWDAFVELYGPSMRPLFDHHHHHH

With `CCc1c2c(nn1C)CN(C1CC1)S(=O)(=O)CCCn1c(C(=O)O)c(CCCOc3cccc4cc(F)ccc34)c3ccc(Cl)c-2c31` (racemic) [Example 53, (rac)-4-chloro-14-cyclopropyl-3-ethyl-7-{3-[(6-fluoro-1-naphthyl)oxy]propyl}-2-methyl-11,12,14,15-tetrahydro-2H,10H-pyrazolo[3′,4′:4,5][1,2,8]thiadiazacycloundecino[6,7,8-hi]indole-8-carboxylic acid 13,13-dioxide], a half-maximal effect in data set [1] (3 hours) (EC50) was put at 550 nM. The IC50 is 5.9e-07 M in data set [2] (72 hours); 5e-06 M and 6.4e-06 M and 7.7e-06 M in data set [3] (72 hours); 8.1e-07 M in data set [4].
As for `CCc1c2c(nn1C)CN(CC)S(=O)(=O)CCCn1c(C(=O)O)c(CCCOc3cccc4cc(F)ccc34)c3ccc(Cl)c-2c31` (racemic) [Example 56, (rac)-4-chloro-3,14-diethyl-7-{3-[(6-fluoro-1-naphthyl)oxy]propyl}-2-methyl-11,12,14,15-tetrahydro-2H,10H-pyrazolo[3′,4′:4,5][1,2,8]thiadiazacycloundecino[6,7,8-hi]indole-8-carboxylic acid 13,13-dioxide], in data set [1] (Homo sapiens, SU-DHL-5, 3 h), the EC50 came to 200 nM. The IC50 is 9.6e-08 M in data set [2] (Homo sapiens, SU-DHL-5, 72 h); 1.5e-06 M in data set [3] (72 h); 2.3e-06 M and 2.7e-06 M in data set [3] (72 hours); 2.8e-07 M in data set [4] (Homo sapiens, SU-DHL-5, 5 h).
Consider `CCc1c2c(nn1C)C(CCC1CCOCC1)N(C)S(=O)(=O)CCCn1c(C(=O)O)c(CCCOc3cccc4cc(F)ccc34)c3ccc(Cl)c-2c31` (racemic) [Example 60, (rac)-4-chloro-3-ethyl-7-{3-[(6-fluoro-1-naphthyl)oxy]propyl}-2,14-dimethyl-15-[2-(tetrahydro-2H-pyran-4-yl)ethyl]-11,12,14,15-tetrahydro-2H,10H-pyrazolo[3′,4′:4,5][1,2,8]thiadiazacycloundecino[6,7,8-hi]indole-8-carboxylic acid 13,13-dioxide (Racemate 1)], for which, in data set [1] (3 hours), the EC50 came to 18 nM. Besides, the 50% inhibitory concentration (IC50) in data set [2] (72 hours) was 1.8e-08 M; in data set [3] (72 hours) it was 1.9e-07 M; in data set [4] it was 2.8e-08 M.
In data set [1] (3 hours), `CCc1c2c(nn1C)C(CCN1CCOCC1)N(C)S(=O)(=O)CCCn1c(C(=O)O)c(CCCOc3cccc4cc(F)ccc34)c3ccc(Cl)c-2c31` (racemic) [Example 73, (rac)-(4-chloro-3-ethyl-7-{3-[(6-fluoronaphthalen-1-yl)oxy]propyl}-2,14-dimethyl-15-[2-(morpholin-4-yl)ethyl]-13,13-dioxo-10,11,12,13,14,15-hexahydro-2H-13lambda^6-pyrazolo[3′,4′:4,5][1,2,8]thiadiazacycloundecino[6,7,8-hi]indole-8-carboxylic acid (Racemate 1)] registered a concentration for a half-maximal effect (EC50) of 23 nM. For the same compound, the IC50 is 1.5e-08 M in data set [2] (72 hours) and 1e-06 M in data set [3] (72 hours).
For `Cc1c2c(nn1C)CN(CCN1CCOCC1)S(=O)(=O)CCCn1c(C(=O)O)c(CCCOc3cccc4ccccc34)c3cccc-2c31` (single isomer, unassigned; enantiomer 2) [Example 3, 2,3-Dimethyl-14-[2-(morpholin-4-yl)ethyl]-7-{3-[(naphthalen-1-yl)oxy]propyl}-13,13-dioxo-10,11,12,13,14,15-hexahydro-2H-13λ^6-pyrazolo[3′,4′:4,5][1,2,8]thiadiazacycloundecino-[6,7,8-hi]indole-8-carboxylic acid-N-ethylethanamine salt (Enantiomer 2)], the 50% inhibitory concentration (IC50) was greater than 20 µM in data set [5]; 1.5e-05 M in data set [2] (72 hours); 1.54e-05 M in data set [6] (72 hours, listed as 03, read-out: Antiproli MV-4-11 [M] IC50); greater than 3.3e-05 M in data set [4]. The compound further showed a half-maximal effective concentration (EC50) in data set [1] (3 hours) greater than 33000 nM.
Regarding `CCc1c2c(nn1C)CN(C)S(=O)(=O)CCCn1c(C(=O)O)c(CCCOc3cccc4cc(F)ccc34)c3ccc(F)c-2c31` (single isomer, unassigned; enantiomer 2) [Example 9, (−)-3-Ethyl-4-fluoro-7-{3-[(6-fluoronaphthalen-1-yl)oxy]propyl}-2,14-dimethyl-13,13-dioxo-10,11,12,13,14,15-hexahydro-2H-13λ^6-pyrazolo[3′,4′:4,5][1,2,8]thiadiazacycloundecino-[6,7,8-hi]indole-8-carboxylic acid (Enantiomer 2)], the IC50 was greater than 20 µM in data set [5]; 1.4e-05 M in data set [2] (72 hours); 1.98e-05 M in data set [6] (72 hours, listed as 09, read-out: Antiproli MV-4-11 [M] IC50); 1.7e-05 M in data set [4]. The same compound showed an EC50 in data set [1] (3 hours) of 21000 nM.
Regarding `CCc1c2c(nn1C)CN(C)S(=O)(=O)CCCn1c(C(=O)O)c(CCCOc3cccc4ccccc34)c3ccc(Cl)c-2c31` [Example 20, (rac)-13-Chloro-12-ethyl-8,11-dimethyl-1-(3-(naphthalen-1-yloxy)propyl)-5,6,9,11-tetrahydro-4H,8H-pyrazolo[3′,4′:4,5][1]thia[2,8]diazacycloundecino[6,7,8-hi]indole-2-carboxylic acid 7,7-dioxide], the IC50 in data set [5] is greater than 20 µM; in data set [2] (Homo sapiens, SU-DHL-5, 72 h) it was 5.2e-07 M; in data set [6] (setting [7]), 1.31e-06 M; in data set [4] (Homo sapiens, SU-DHL-5, 5 h), 9.1e-07 M. In data set [1] (Homo sapiens, SU-DHL-5, 3 h), this compound displayed an EC50 of 860 nM.
With `CCc1c2c(nn1C)CN(C)S(=O)(=O)CCCn1c(C(=O)O)c(CCCOc3cccc4c3CCC4)c3ccc(Cl)c-2c31` [Example 21, (rac)-13-Chloro-1-(3-((2,3-dihydro-1H-inden-4-yl)oxy)propyl)-12-ethyl-8,11-dimethyl-5,6,9,11-tetrahydro-4H,8H-pyrazolo[3′,4′:4,5][1]thia[2,8]diazacycloundecino[6,7,8-hi]indole-2-carboxylic acid 7,7-dioxide], the IC50 in data set [5] is greater than 20 µM; in data set [2] (Homo sapiens, SU-DHL-5, 72 h) it was 5.3e-07 M; in data set [6] (setting [7]) it was 2.1e-06 M; in data set [4] (Homo sapiens, SU-DHL-5, 5 h), 1e-06 M. Also, the 50% effective concentration (EC50) in data set [1] (Homo sapiens, SU-DHL-5, 3 h) came out at 650 nM.
For `CCc1c2c(nn1C)CN(C)S(=O)(=O)CCCn1c(C(=O)O)c(CCCOc3cc(C)c(Cl)c(C)c3)c3ccc(Cl)c-2c31` [Example 22, (rac)-13-Chloro-1-(3-(4-chloro-3,5-dimethylphenoxy)propyl)-12-ethyl-8,11-dimethyl-4,5,6,8,9,11-hexahydropyrazolo[3′,4′:4,5][1,2,8]thiadiazacycloundecino[6,7,8-hi]indole-2-carboxylic acid 7,7-dioxide], in that order: greater than 20 µM, 1.9e-06 M, 2.41e-06 M, 2.1e-06 M and 1800 nM.
With `CCc1c2c(nn1C)CN(C)S(=O)(=O)CCCn1c(C(=O)O)c(CCCOc3cccc4c3CCCC4)c3ccc(Cl)c-2c31` [Example 23, (rac)-13-Chloro-12-ethyl-8,11-dimethyl-1-(3-((5,6,7,8-tetrahydronaphthalen-1-yl)oxy)propyl)-4,5,6,8,9,11-hexahydropyrazolo[3′,4′:4,5][1,2,8]thiadiazacycloundecino[6,7,8-hi]indole-2-carboxylic acid 7,7-dioxide], the IC50 in data set [5] came to 15 µM; in data set [2] (Homo sapiens, SU-DHL-5, 72 h) it was 6.9e-07 M; in data set [6] (setting [7]), 1.96e-06 M; in data set [4] (Homo sapiens, SU-DHL-5, 5 h), 1.7e-06 M. This compound also had a concentration for a half-maximal effect (EC50) in data set [1] (Homo sapiens, SU-DHL-5, 3 h) of 1300 nM.
For `CCc1c2c(nn1C)CN(C)S(=O)(=O)CCCn1c(C(=O)O)c(CCCOc3ccc(F)c4ccccc34)c3ccc(Cl)c-2c31` [Example 24, (rac)-13-Chloro-12-ethyl-1-(34(4-fluoronaphthalen-1-yl)oxy)propyl)-8,11-dimethyl-4,5,6,8,9,11-hexahydropyrazolo[3′,4′:4,5][1,2,8]thiadiazacycloundecino[6,7,8-hi]indole-2-carboxylic acid 7,7-dioxide] the same measures were greater than 20 µM, 1.2e-06 M, 2.5e-06 M, 1.3e-06 M and 1100 nM.
As to `Cc1c2c(nn1C)CN(C)S(=O)(=O)CCCn1c(C(=O)O)c(CCCOc3ccc(F)c4ccccc34)c3ccc(F)c-2c31` [Example 30, (rac)-13-Fluoro-1-(34(4-fluoronaphthalen-1-yl)oxy)propyl)-8,11,12-trimethyl-5,6,9,11-tetrahydro-4H,8H-pyrazolo[3′,4′:4,5][1]thia[2,8]diazacycloundecino[6,7,8-hi]indole-2-carboxylic acid 7,7-dioxide], the IC50 in data set [5] is greater than 20 µM; in data set [2] (Homo sapiens, SU-DHL-5, 72 h), 1.4e-06 M; in data set [6] (setting [7]), 3.5e-06 M; in data set [4] (Homo sapiens, SU-DHL-5, 5 h) it was 1.7e-06 M. This compound also came in with an EC50 in data set [1] (Homo sapiens, SU-DHL-5, 3 h) of 1700 nM.
